Assay results taken from PubChem BioAssay (NCI).
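Grown in 96-well plates, cells were treated for 48 hours with each compound at five concentrations. Insufficient inhibition: endpoint recorded as highest concentration tested. TGI is the concentration that stops growth completely.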

Legend:
Experiment in all cases: DTP human tumour cell line panel, 48 h
[1] = system: A498 renal
[2] = system: CAKI-1 renal
[3] = system: HCC-2998 colon
[4] = system: HCT-116 colon
[5] = system: LOX IMVI melanoma
[6] = system: NCI-H23 lung
[7] = system: OVCAR-3 ovarian
[8] = system: OVCAR-4 ovarian
[9] = system: OVCAR-5 ovarian
[10] = system: SN12C renal
[11] = system: SNB-19 CNS
[12] = system: UACC-257 melanoma
[13] = system: HS 578T breast
[14] = system: MCF7 breast
[15] = system: MDA-MB-435

| SMILES | TGI [1] | TGI [2] | TGI [3] | TGI [4] | TGI [5] | TGI [6] | TGI [7] | TGI [8] | TGI [9] | TGI [10] | TGI [11] | TGI [12] | TGI [13] | TGI [14] | TGI [15] |
| --- | --- | --- | --- | --- | --- | --- | --- | --- | --- | --- | --- | --- | --- | --- | --- |
| CS/C(C)=N/OC(=O)NCCCCNc1ccc(N=[N+]=[N-])cc1 | > 100 µM | > 100 µM | 56.1 µM | > 100 µM | > 100 µM | > 100 µM | 62.9 µM | > 100 µM | > 100 µM | > 100 µM | > 100 µM | > 100 µM | – | – | – |
| O=C1[C@@H]2C[C@@H](O)CN2C(=O)c2ccccc2N1CCCO | > 100 µM | – | – | > 100 µM | > 100 µM | – | > 100 µM | – | > 100 µM | > 100 µM | > 100 µM | > 100 µM | > 100 µM | > 100 µM | > 100 µM |
| N#Cc1cc([N+](=O)[O-])ccc1NC(=O)/C(=N/N)C(C(=O)c1ccc(Cl)c(Cl)c1)C1OC(=O)c2ccccc21 (stereo not drawn) | > 100 µM | > 100 µM | > 100 µM | > 100 µM | > 100 µM | > 100 µM | > 100 µM | > 100 µM | > 100 µM | > 100 µM | > 100 µM | > 100 µM | – | – | – |
| O=C1C(=Nc2ccccc2)Oc2cc(O)ccc21 | > 100 µM | > 100 µM | > 100 µM | > 100 µM | > 100 µM | > 100 µM | > 100 µM | > 100 µM | > 100 µM | > 100 µM | > 100 µM | > 100 µM | – | > 100 µM | > 100 µM |
| C[n+]1cccc2ccc(OC(=O)c3ccccc3)cc21 | > 100 µM | > 100 µM | – | > 100 µM | > 100 µM | > 100 µM | > 100 µM | > 100 µM | > 100 µM | > 100 µM | > 100 µM | > 100 µM | > 100 µM | > 100 µM | > 100 µM |
| CCN(CC)C(=S)N=Nc1c(O)[nH]c2ccccc12 | 3.64 µM | 5.98 µM | – | 2.84 µM | 13.4 µM | 14.6 µM | 2.12 µM | 11.9 µM | 25.1 µM | 14.2 µM | 16 µM | 12.3 µM | 69.5 µM | 2.37 µM | 18.8 µM |
| CC(C)CCc1n[nH]c(=O)n1/N=C\c1ccccc1 | > 100 µM | – | > 100 µM | > 100 µM | > 100 µM | > 100 µM | > 100 µM | > 100 µM | > 100 µM | > 100 µM | > 100 µM | > 100 µM | > 100 µM | – | > 100 µM |
| COc1cccc2nc3cc(C)c(C)cc3nc12 | > 100 µM | > 100 µM | > 100 µM | > 100 µM | > 100 µM | > 100 µM | > 100 µM | > 100 µM | > 100 µM | > 100 µM | > 100 µM | > 100 µM | – | – | – |
| C=C=C(Sc1ccccc1)C(C)(C)OC(C)=O | 42.6 µM | 90.2 µM | 43.1 µM | 27.7 µM | 30.9 µM | 32.9 µM | 31.1 µM | > 100 µM | 45.2 µM | 31.1 µM | 40.4 µM | 32.4 µM | – | – | – |
| CC(C)C1COC(c2cccc(C3=N[C@@H](C(C)C)CO3)n2)=N1 (stereo partly drawn) | > 100 µM | > 100 µM | > 100 µM | > 100 µM | > 100 µM | > 100 µM | > 100 µM | > 100 µM | > 100 µM | > 100 µM | > 100 µM | – | – | – | – |
| CCC(=O)N(O)C(C)(C)C | – | > 100 µM | > 100 µM | > 100 µM | > 100 µM | > 100 µM | > 100 µM | > 100 µM | > 100 µM | > 100 µM | > 100 µM | > 100 µM | – | – | – |
| C=CCNC(=O)NCCCC(NC(C)=O)C(=O)NCc1ccccc1 (stereo not drawn) | > 100 µM | > 100 µM | – | – | > 100 µM | > 100 µM | > 100 µM | > 100 µM | > 100 µM | > 100 µM | > 100 µM | > 100 µM | – | – | – |
| COc1ccc(-c2cc(=O)c3cc4c(cc3[nH]2)OCO4)cc1 | > 100 µM | – | > 100 µM | > 100 µM | > 100 µM | > 100 µM | > 100 µM | > 100 µM | – | > 100 µM | > 100 µM | > 100 µM | – | – | – |
| O=C(/C=C/c1ccc(Cl)cc1)c1cccs1 | 56 µM | 45.2 µM | 37.5 µM | 33.8 µM | 24.3 µM | – | – | – | – | 33.2 µM | 33.4 µM | 37.4 µM | > 100 µM | 15.8 µM | 25.9 µM |
| O=c1c2cn[nH]c2nc2scc(-c3ccc(Cl)cc3)n12 | – | > 100 µM | > 100 µM | > 100 µM | > 100 µM | > 100 µM | > 100 µM | > 100 µM | > 100 µM | > 100 µM | > 100 µM | > 100 µM | > 100 µM | > 100 µM | > 100 µM |
| CCN(CC)CC(C(=O)Nc1c(C)cccc1C)/C(C)=N\NC(=O)c1ccncc1 (stereo not drawn) | > 100 µM | > 100 µM | > 100 µM | > 100 µM | > 100 µM | > 100 µM | > 100 µM | > 100 µM | > 100 µM | > 100 µM | > 100 µM | > 100 µM | – | – | – |
